From patent US7323474B2, “Pyridine derivatives inhibiting angiogenesis and/or VEGF receptor tyrosine kinase” (Novartis AG, priority 2000, dated 2008)

Assays:
[1] = biological target: T1, human VEGF receptor (KDR) (Homo sapiens, UniProt P35968); assay: Test for activity against VEGF-induced KDR phosphorylation (transfected CHO cells, sandwich ELISA); assay type: cell-based; conditions: 2 h compound, then VEGF 20 ng/ml for 5 min, % inhibition of VEGF-induced KDR phosphorylation, read-out: ED50 (the source's name)
T1 construct: expressed in transfected cells; host or cells: CHO cells (stably transfected)
Description: Using a further cellular in vitro experiment, the inhibition of the VEGF-induced KDR autophosphorylation can be confirmed: Transfected CHO cells, which permanently express human VEGF receptor (KDR), are seeded in culture medium (with 10% fetal calf serum=FCS) in 6-well cell culture plates and incubated at 37° C., 5% CO2 until they are approximately 80% confluent. The compounds to be tested are then diluted in culture medium (without FCS, with 0.1% bovine serum albumin=BSA) and added to the cells. (Controls receive medium without test compounds). After incubation for two hours at 37° C., recombinant VEGF is added; the final VEGF concentration is 20 ng/ml. After incubating for a further five minutes at 37° C., the cells are washed twice with ice-cold PBS (phosphate-buffered physiological saline) and immediately lysed in 100 μl lysis buffer per well. The lysates are then centrifuged to remove the cell nuclei, and the protein concentrations of the supematants are determined by a commercial protein assay (BIORAD). The lysates can then be either further used immediately or stored at −20° C. if required. To determine the KDR phosphorylation, a “sandwich ELISA” is carried out. A monoclonal antibody to KDR (for example Mab 1495.12.14; prepared by H. Towbin) is immobilised on black ELISA plates (OptiPlate™ HTRF-96 by Packard). Subsequently, the plates are washed and any remaining free protein binding sites are neutralised with 1% BSA in PBS. The cell lysates (20 μg protein per well) are then incubated over night at 4° C. together with an anti-phosphotyrosin antibody, which is coupled with alkaline phosphatase (PY20:AP from Transduction Laboratories). […] Luminescence is measured in a Packard Top Count Microplate Scintillation Counter (Top Count). The difference between the signal from the positive control (stimulated with VEGF) and that from the negative control (not stimulated with VEGF) corresponds to the VEGF-induced KDR phosphorylation (=100%). The activity of the tested substances is calculated as % inhibition of the VEGF-induced KDR phosphorylation, whereby the concentration of a substance which effects semi-maximum inhibition is called ED50 (effective dose for 50% inhibition). […] Test for activity against VEGF-Induced KDR phosphorylation The cellular in vitro test is carried out using VEGF and KDR-transfected cells, as described above. The ED50 values determined are given below, insofar as they have been accurately recorded: […]

[2] = biological target: T2, KDR VEGF-receptor tyrosine kinase (Homo sapiens, UniProt P35968); assay: Test for activity against KDR VEGF-receptor tyrosine kinase; assay type: biochemical; conditions: KDR kinase domain; poly(Glu,Tyr) 4:1 8 μg/ml, 8 μM [33P]-ATP, 10 minutes at room temperature
T2 construct: instead of the Flt-1 kinase domain, the KDR kinase domain
Description: Test for activity against VEGF-receptor tyrosine kinase: the test is conducted using Flt-1 VEGF-receptor tyrosine kinase. The detailed procedure is as follows: 30 μl kinase solution (kinase domain of Flt-1, Shibuya et al., Oncogene 5, 519-24 [1990], according to the specific activity, in order to achieve an activity of 4000-6000 counts per minute [cpm] in the sample without inhibitor) in 20 mM Tris.HCl pH 7.5, 3 mM manganese dichloride (MnCl2), 3 mM magnesium chloride (MgCl2) and 3 μg/ml poly(Glu,Tyr) 4:1 (Sigma, Buchs, Switzerland), 8 μM [^33P]-ATP (0.2 μCi/batch), 1% dimethyl sulfoxide, and 0 to 50 μM of the compound to be tested are Incubated together for 10 minutes at room temperature. The reaction is then ended by the addition of 10 μl 0.25 M ethylenediaminetetraacetate (EDTA) pH 7. Using a multichannel dispenser (LAB SYSTEMS, USA), an aliquot of 20 μl is applied to a PVDF (=polyvinyl difluoride) Immobilon P membrane (Millipore, USA), which is incorporated into a Millipore microtitre filter manifold, and connected to a vacuum. Following complete elimination of the liquid, the membrane is washed 4 times successively in a bath containing 0.5% phosphoric acid (H3PO4), incubated for 10 minutes each time while shaking, then mounted in a Hewlett Packard TopCount Manifold and the radioactivity measured after the addition of 10 μl Microscint® (β-scintillation counter liquid; Packard USA). IC50-values are determined by linear regression analysis of the percentages for the inhibition of each compound in three concentrations (as a rule 0.01, 0.1, and 1 μM). Inhibition values (IC50 50% inhibition of activity compared with the control without an inhibitor of formula I) in the range of 5 nM to 1 μM, especially In the range of 5 nM to 500 nM are found.
Analogously to the above test, the efficacy of the compounds according to the invention as inhibitors of VEGF activity can be tested using the VEGF receptor tyrokinase KDR. In this test, instead of the Flt-1 kinase domain, the KDR kinase domain (Parast et al., Biochemistry 37 (47), 16788-801 (1998)) is used. The only difference in carrying out this test from the above test lies in the concentration of poly(Glu,Tyr) 4:1 (8 μg/ml), MnCl2 (1 mM) and MgCl2 (10 mM).
Test for activity against KDR VEGF-receptor tyrosine kinase The test is conducted using KDR VEGF-receptor tyrosine kinase, as described hereinabove. The IC50 values determined are given below, insofar as they have been accurately recorded: […]

T1 sequence (P35968 20-1356): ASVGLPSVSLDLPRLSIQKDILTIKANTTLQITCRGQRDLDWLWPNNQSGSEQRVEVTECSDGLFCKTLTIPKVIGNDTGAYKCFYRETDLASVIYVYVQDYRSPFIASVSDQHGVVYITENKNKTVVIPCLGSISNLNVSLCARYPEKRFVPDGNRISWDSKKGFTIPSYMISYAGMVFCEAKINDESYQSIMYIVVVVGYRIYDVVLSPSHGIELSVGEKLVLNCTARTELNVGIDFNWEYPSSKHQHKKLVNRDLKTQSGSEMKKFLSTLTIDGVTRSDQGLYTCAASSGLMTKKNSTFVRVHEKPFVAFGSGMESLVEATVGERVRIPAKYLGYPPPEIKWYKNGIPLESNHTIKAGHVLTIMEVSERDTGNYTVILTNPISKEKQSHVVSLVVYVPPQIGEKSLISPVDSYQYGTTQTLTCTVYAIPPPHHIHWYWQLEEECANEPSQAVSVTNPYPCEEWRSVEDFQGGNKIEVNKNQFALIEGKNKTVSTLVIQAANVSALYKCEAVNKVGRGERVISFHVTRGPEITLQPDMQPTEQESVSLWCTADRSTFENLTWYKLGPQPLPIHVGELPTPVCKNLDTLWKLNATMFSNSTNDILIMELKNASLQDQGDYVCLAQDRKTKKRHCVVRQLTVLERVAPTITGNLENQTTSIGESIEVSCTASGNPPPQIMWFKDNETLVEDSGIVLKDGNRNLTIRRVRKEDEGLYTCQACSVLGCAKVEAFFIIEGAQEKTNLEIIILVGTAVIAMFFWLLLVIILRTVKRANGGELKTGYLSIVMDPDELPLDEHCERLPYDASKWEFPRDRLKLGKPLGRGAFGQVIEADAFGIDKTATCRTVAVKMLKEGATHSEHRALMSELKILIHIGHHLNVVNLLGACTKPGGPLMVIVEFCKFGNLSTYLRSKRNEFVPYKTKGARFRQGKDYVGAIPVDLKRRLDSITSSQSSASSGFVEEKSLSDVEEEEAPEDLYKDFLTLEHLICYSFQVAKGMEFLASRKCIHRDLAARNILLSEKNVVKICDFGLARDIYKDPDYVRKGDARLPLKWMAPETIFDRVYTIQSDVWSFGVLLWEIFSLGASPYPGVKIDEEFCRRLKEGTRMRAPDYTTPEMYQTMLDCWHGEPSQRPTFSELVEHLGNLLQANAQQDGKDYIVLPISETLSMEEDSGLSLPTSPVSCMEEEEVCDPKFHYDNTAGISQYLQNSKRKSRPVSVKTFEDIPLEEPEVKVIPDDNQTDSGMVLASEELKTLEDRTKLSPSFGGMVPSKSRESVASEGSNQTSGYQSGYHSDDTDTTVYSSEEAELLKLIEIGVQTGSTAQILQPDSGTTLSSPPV
T2 sequence (P35968 834-1162 limits assumed): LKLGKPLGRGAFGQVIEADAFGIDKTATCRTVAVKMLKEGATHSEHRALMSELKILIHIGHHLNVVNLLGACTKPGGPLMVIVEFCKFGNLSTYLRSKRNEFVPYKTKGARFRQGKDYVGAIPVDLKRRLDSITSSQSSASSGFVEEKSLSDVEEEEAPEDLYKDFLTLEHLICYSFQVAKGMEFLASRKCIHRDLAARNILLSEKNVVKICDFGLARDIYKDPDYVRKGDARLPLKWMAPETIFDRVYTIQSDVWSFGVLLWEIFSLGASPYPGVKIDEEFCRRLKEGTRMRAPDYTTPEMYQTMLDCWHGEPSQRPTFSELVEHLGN

| IC50 [1] [nM] | IC50 [2] [nM] | melting point [°C] | SMILES |
| --- | --- | --- | --- |
| 22 | – | – | CC(C)(C)c1ccc(Nc2ncc(Cc3ccc(O)nc3)c3ncccc23)cc1 [Example 41e, 5-[4-(tert-butyl)-anilino]-8-[(6-hydroxy-pyridin-3-yl)-methyl]-[1,6]naphthyridine] |
| – | 33 | 133 to 134 | CC(C)(C)c1cccc(Nc2ncc(CCc3cccnc3)c3ccccc23)c1 [Example 10] |
| – | 87 | – | CC(C)[C@H]1CC[C@H](Nc2ncc(Cc3ccc(O)nc3)c3ccccc23)CC1 [29 (E isomer), trans 1-(4-isopropyl-cyclohexylamino)-4-[(6-hydroxy-pyridin-3-yl)-methyl]-isoquinoline] |
| – | 41 | 124 to 125 | FC(F)(F)c1ccc(Nc2ncc(CCc3cccnc3)c3ccccc23)cc1C(F)(F)F [Example 11] |
| 29 | 137 | – | CCc1ccc(Nc2ncc(Cc3ccc(O)nc3)c3ccccc23)cc1Br [Example 34g, 1-(3-bromo-4-ethylanilino]-4-[(6-hydroxy-pyridin-3-yl)-methyl]-isoquinoline] |
| 28 | – | – | COc1ccc(Cc2cnc(Nc3ccc(C(C)(C)C)cc3)c3ccccc23)cn1 [Example 33e, 1-[4-(tert-butyl)-anilino]-4-[(6-methoxy-pyridin-3yl)-methyl]-isoquinoline] |
| – | 48 | – | Cc1ccc(CCc2cnc(Nc3ccc(C(C)C)c(C)c3)c3ccccc23)cn1 [Example 20] |
| – | 185 | – | Nc1cc(Cl)cc(C(F)(F)F)c1 [Example 7, 5-amino-3-chloro-benzotrifluoride] |
| – | 105 | 157 to 158 | Clc1ccc(Nc2ncc(CCc3cccnc3)c3ccccc23)cc1 [Example 1, 1-(4chloroanilino)-4-[2-(pyridin-3-yl)-ethyl]-isoquinoline] |
| 10 | 25 | 81 | CC(C)(C)c1ccc(Nc2ncc(CCc3cccnc3)c3ccccc23)cc1 [Example 5] |
| – | – | 137 | Cc1nc(Nc2cccc(C(F)(F)F)c2)c2ccccc2c1Cc1ccc(Cl)nc1 [Example 45a, 1-(3-trifluoromethyl-anilino)-4-[(6-chloro-pyridin-3-yl)-methyl]-3-methylisoquinoline] |
| 11 | 27 | 133 to 134 | Cc1cc(Nc2ncc(CCc3cccnc3)c3ccccc23)ccc1C(C)C [Example 8] |
| 91 | 4 | 119 | CCc1ccc(Nc2ncc(CCc3cccnc3)c3ccccc23)cc1Br [Example 9, 1-(3-bromo-4ethylanilino)-4-[2-(pyridin-3-yl)-ethyl]-isoquinoline] |
| 19 | – | – | CC(C)(C)c1ccc(Nc2ncc(Cc3ccc(O)nc3)c3ccccc23)cc1 [Example 34e, 1-[4-(tert-butyl)-anilino]4-[(6-hydroxy-pyridin-3-yl)-methyl]-isoquinoline] |
| – | 192 | 174 | FC(F)(F)c1cc(Nc2ncc(CCc3cccnc3)c3ccccc23)cc(C(F)(F)F)c1 [Example 12] |
| 52 | 81 | – | COc1ccc(Cc2cnc(Nc3ccc(C(C)(C)C)cc3)c3cccnc23)cn1 [Example 40e, 5-[4-(tert-butyl)-anilino]-8-[(6-methoxy-pyridin-3-yl)-methyl]-[1,6]naphthyridine] |
| – | 49 | – | Cc1ccc(Nc2ncc(/C=C\c3cccnc3)c3ccccc23)cc1Br [Example 2, (Z) 1-(3-bromo-4-methylanilino)-4-[2-(pyridin-3-yl)-vinyl]-isoquinoline] |
| – | 127 | – | Cc1ccc(CCc2cnc(N[C@H]3CC[C@H](C(C)C)CC3)c3ccccc23)cn1 [Example 19, trans 1-(4-isopropyl-cyclohexylamino)-4-[2-(6-methyl-pyridin-3-yl)-ethyl]-isoquinoline] |
| – | 196 | 124 to 125 | CC(C)(C)[C@H]1CC[C@H](Nc2ncc(CCc3cccnc3)c3ccccc23)CC1 [16 (E isomer), trans 1-(4-tert-butyl-cyclohexylamino)-4-[2-(pyridin-3-yl)-ethyl]-isoquinoline] |
| – | – | 142 to 146 | CCc1ccc(Nc2ncc(Cc3ccc(OC)nc3)c3ncccc23)cc1Br [Example 37a, 5-(3-bromo-4-ethyl-anilino)-8-[(6-methoxy-pyridin-3-yl)-methyl]-[1,6]naphthyridine] |
| – | – | 232 to 235 | CC(C)[C@H]1CC[C@H](Nc2ncc(Cc3ccc(O)nc3)c3ncccc23)CC1 [Example 39, trans 5-(4-isopropyl-cyclohexylamino)-8-[(6-hydroxy-pyridin-3-yl)-methyl]-[1,6]naphthyridine] |
| – | 15 | 103 to 105 | CCc1ccc(Nc2ncc(CCc3ccc(C)nc3)c3ccccc23)cc1Br [Example 21] |
| – | 53 | 159 | FC(F)(F)c1cc(Nc2ncc(CCc3cccnc3)c3ccccc23)ccc1Cl [Example 13] |
| – | 123 | 196 to 197 | Cc1ccc(Nc2ncc(/C=C/c3cccnc3)c3ccccc23)cc1Br [Example 3, (E) 1-(3-bromo-4-methylanilino)-4-[2-(pyridin-3-yl)-vinyl]-isoquinoline] |
| – | 92 | – | CCc1ccc(Nc2ncc(Cc3ccc(O)nc3)c3ncccc23)cc1Br [Example 37b, 5-(3-bromo-4-ethyl-anilino)-8-[(6-hydroxy-pyridin-3-yl)-methyl]-[1,6]naphthyridine] |
